Assay results: BindingDB's records for doi:10.3109/14756366.2012.753591 (Gyeongsang National University, 2014)

Target: Replicase polyprotein 1a (Severe acute respiratory syndrome coronavirus, UniProt P0C6U8)
Assay: SARS-CoV PLpro Inhibition Assay
Settings: pH 8
Procedure: (§1) Reactions were performed in a total volume of […], which contained thefollowing components: 20mM Tris-buffer, pH 8.0, 10mM DTT, […], 2% DMSO and varying concentrations of inhibitor ([…]). Assays were initiated with the addition of PLpro to produce a final enzyme concentration of 60 nM.

`O=c1ccc2ccc3occc3c2o1` [2H-furo[2,3-h]chromen-2-one] and `O=c1ccc2cc3ccoc3cc2o1` [7H-furo[3,2-g]chromen-7-one] cannot be ordered by IC50: > 150 µM for the first, > 150 µM for the second.

Going from `CC(C)=CCC/C(C)=C\Cc1cc(-c2coc3cc(O)ccc3c2=O)ccc1O` [Corylifol A (6)] to `CC(C)=CCc1cc(-c2coc3cc(O)ccc3c2=O)ccc1O` [Neobavaisoflavone (2)], the IC50 falls from 32.3 µM to 18.3 µM (1.8-fold).

Compared with `COc1cc2c(cc1CC=C(C)C)C(=O)CC(c1ccc(O)cc1)O2` (stereo unspecified) [Bavachinin (1)], `COc1cc(O)c(C(=O)/C=C/c2ccc(O)cc2)cc1CC=C(C)C` [4'-O-methylbavachalcone (4)] is 3.8-fold lower in IC50: 38.4 µM for the first, 10.1 µM for the second. The second is the more potent here.

First: CC(C)=CCc1c(O)ccc(C(=O)/C=C/c2ccc(O)cc2)c1O [Isobacachalcone]
Second: CC(C)=CCc1cc2c(cc1O)oc(=O)c1c3ccc(O)cc3oc21 [Psoralidin (5)]
The IC50 of the first is 1.7-fold higher: 7.3 µM for the first, 4.2 µM for the second.

In order of falling Ki:
1. COc1cc2c(cc1CC=C(C)C)C(=O)CC(c1ccc(O)cc1)O2 (stereo unspecified) [Bavachinin (1)]  18.4 µM
2. CC(C)=CCC/C(C)=C\Cc1cc(-c2coc3cc(O)ccc3c2=O)ccc1O [Corylifol A (6)]  11.4 µM
3. CC(C)=CCc1cc(-c2coc3cc(O)ccc3c2=O)ccc1O [Neobavaisoflavone (2)]  9.4 µM
4. CC(C)=CCc1c(O)ccc(C(=O)/C=C/c2ccc(O)cc2)c1O [Isobacachalcone]  4.9 µM
5. COc1cc(O)c(C(=O)/C=C/c2ccc(O)cc2)cc1CC=C(C)C [4'-O-methylbavachalcone (4)]  4.6 µM
6. CC(C)=CCc1cc2c(cc1O)oc(=O)c1c3ccc(O)cc3oc21 [Psoralidin (5)]  1.7 µM

Target: Replicase polyprotein 1a/Z-RLRGG-AMC (Severe acute respiratory syndrome coronavirus, UniProt P0C6U8)
Assay: SARS-CoV PLpro Inhibition Assay
Settings: pH 8
Procedure: as §1

In order of rising Ki:
1. CC(C)=CCc1cc2c(cc1O)oc(=O)c1c3ccc(O)cc3oc21 [Psoralidin (5)]  4.2 µM
2. CC(C)=CCc1c(O)ccc(C(=O)/C=C/c2ccc(O)cc2)c1O [Isobacachalcone]  9.1 µM
